Legend:
PARP1 [1] = biological target: T1, PARP1 (Homo sapiens (Human), UniProt P09874); assay: PARP1 protein expression level in MDA-MB-231 cells; type: cell-based; settings: 24 hours
Method: The cells were collected into a 1.5 mL centrifuge tube, 25 μL of RIPA lysis buffer (containing 1× protease inhibitor cocktail) was added, and the cells were lysed on ice for 15 minutes and centrifuged at 12000 rpm/min at 4° C. for 10 minutes. The supernatant was collected and the protein content was determined using the BCA method. […] DC50 values were calculated using a four-parameter non-linear fitting model in Graphpad 8.3.0 software.

PARP1 [2] = biological target: T1, PARP1; assay: PARP1 protein expression level in MDA-MB-436 cells; type: cell-based; settings: 100 nM, 24 hours
Method: (§1) MDA-MB-436 cells were placed in a complete DMEM medium (supplemented with 15% FBS; 10 μg/mL Insulin; 16 μg/mL Glutathione and 1% penicillin-streptomycin solution), and cultured at 37° C. under CO2-free conditions. The cells in the logarithmic growth phase were collected, the cell density was adjusted to 2×10^5 cells/well with the culture medium, and the cells were added to a 6-well cell culture plate at a volume of 1 mL/well. The compound to be tested was prepared to 2-fold the final concentration, 1 mL of the compounds at different concentrations were added to administration wells, a medium containing 0.2% DMSO was added to control wells, and the plate was incubated for 24 hours at 37° C. The cells were collected into a 1.5 mL centrifuge tube, 25 μL of RIPA lysis buffer (containing 1× protease inhibitor cocktail) was added, and the cells were lysed on ice for 15 minutes and centrifuged at 12000 rpm/min at 4° C. for 10 minutes. The supernatant was collected and the protein content was determined using the BCA method. The protein sample to be tested was diluted to 0.8 mg/mL, PARP1 was detected using a fully automated protein expression quantitative analyzer (ProteinSimple), and the internal reference protein was 3-actin (both antibodies were from CST). The software (Compass for SW) of the fully automated protein expression quantitative analyzer was used to process the raw data and calculate the peak area and the PARP1 expression rate relative to the control group.
as §1, with “L-15” for “DMEM”, “mL/well and cultured overnight. On day 2, the” for “mL/well. The”, “group. DC50 values were calculated using a four-parameter non-linear fitting model in Graphpad 8.3.0 software.” for “group.”

[3] = tested on: breast tumor cells MDA-MB-436; assay: MDA-MB-436 cell activity test (CellTiter-Glo, 7 days); type: cell-based, human; settings: Homo sapiens; for IC50: MDA-MB-436, 168 h, MDA-MB-436 cells, 7 days incubation, read-out: IC50 (nM), MDA-MB-436 cell inhibitory activity; for inhibition at 10 µM: MDA-MB-436, MDA-MB-436 cells, read-out: Max inh. % 10 μM
Method: Breast tumor cells MDA-MB-436 were purchased from ATCC, the culture medium was Leibovitz's L-15+10% FBS, and the cells were cultured in a CO2-free incubator at 37° C. On day 1, the cells in the exponential growth phase were collected, and the cell suspension was adjusted to 4000 cells/135 μL with the culture medium. 135 μL of the cell suspension was added to each well of a 96-well cell culture plate and incubated overnight. On day 2, compounds at different concentrations were added, and the plate was placed in the incubator and incubated for 7 days. After the culture was completed, according to operation instructions for a CellTiter-Glo kit (Promega, G7573), 75 μL of CTG solution, which was already pre-melted and equilibrated to room temperature, was added to each well, and the mixture was uniformly mixed for 2 minutes using a microplate shaker. The plate was placed at room temperature for 10 minutes, and then […] signal values were determined using an Envision2104 plate reader (PerkinElmer). The inhibition rate was calculated using formula (1), where RLUcompound was the readout of the drug treated group, RLUcontrol was the average value of the solvent control group, and RLUblank was the average value of the cell-free well. The IC50 value was calculated using GraphPad Prism software.

[4] = Pharmacokinetic test in mice; type: in vivo, ICR mice
Method: 8.1 Experimental animals: male ICR mice, 20 to 25 g, 18 mice/compound, purchased from Chengdu Ddossy Experimental Animals Co., Ltd.
8.2 Experimental design: on the day of the experiment, 36 ICR mice were randomly grouped according to their body weights. The animals were fasted with water available for 12 to 14 h one day before the administration, and were fed 4 h after the administration.
(§2) Before and after the administration, 0.06 mL of blood was taken from the orbit of the animals under isoflurane anesthesia and placed in an EDTAK2 centrifuge tube. The blood was centrifuged at 5000 rpm and 4° C. for 10 min to collect plasma. The blood collection time points for the intravenous group and intragastric administration group were: 0 min, 5 min, 15 min, 30 min, 1 h, 2 h, 4 h, 6 h, 8 h, and 24 h. Before analysis and detection, all samples were stored at −80° C. The samples were analyzed quantitatively by LC-MS/MS.

[5] = Pharmacokinetic test in rats; type: in vivo, SD rats
Method: 7.1 Experimental animals: male SD rats, about 220 g, 6-8 weeks old, 6 rats/compound, purchased from Chengdu Ddossy Experimental Animals Co., Ltd.
7.2 Experimental design: on the day of the experiment, 12 SD rats were randomly grouped according to their body weights. The animals were fasted with water available for 12 to 14 h one day before the administration, and were fed 4 h after the administration.
as §2, with “administration, 0.15” for “administration, 0.06”, “intravenous administration” for “intravenous”, “were: 0,” for “were: 0 min,”

[6] = male, ICR, mouse, iv, i.v. 2.5 mg/kg, plasma
[7] = male, SD, rat, iv, i.v. 2.5 mg/kg, plasma

T1 sequence (P09874 whole entry): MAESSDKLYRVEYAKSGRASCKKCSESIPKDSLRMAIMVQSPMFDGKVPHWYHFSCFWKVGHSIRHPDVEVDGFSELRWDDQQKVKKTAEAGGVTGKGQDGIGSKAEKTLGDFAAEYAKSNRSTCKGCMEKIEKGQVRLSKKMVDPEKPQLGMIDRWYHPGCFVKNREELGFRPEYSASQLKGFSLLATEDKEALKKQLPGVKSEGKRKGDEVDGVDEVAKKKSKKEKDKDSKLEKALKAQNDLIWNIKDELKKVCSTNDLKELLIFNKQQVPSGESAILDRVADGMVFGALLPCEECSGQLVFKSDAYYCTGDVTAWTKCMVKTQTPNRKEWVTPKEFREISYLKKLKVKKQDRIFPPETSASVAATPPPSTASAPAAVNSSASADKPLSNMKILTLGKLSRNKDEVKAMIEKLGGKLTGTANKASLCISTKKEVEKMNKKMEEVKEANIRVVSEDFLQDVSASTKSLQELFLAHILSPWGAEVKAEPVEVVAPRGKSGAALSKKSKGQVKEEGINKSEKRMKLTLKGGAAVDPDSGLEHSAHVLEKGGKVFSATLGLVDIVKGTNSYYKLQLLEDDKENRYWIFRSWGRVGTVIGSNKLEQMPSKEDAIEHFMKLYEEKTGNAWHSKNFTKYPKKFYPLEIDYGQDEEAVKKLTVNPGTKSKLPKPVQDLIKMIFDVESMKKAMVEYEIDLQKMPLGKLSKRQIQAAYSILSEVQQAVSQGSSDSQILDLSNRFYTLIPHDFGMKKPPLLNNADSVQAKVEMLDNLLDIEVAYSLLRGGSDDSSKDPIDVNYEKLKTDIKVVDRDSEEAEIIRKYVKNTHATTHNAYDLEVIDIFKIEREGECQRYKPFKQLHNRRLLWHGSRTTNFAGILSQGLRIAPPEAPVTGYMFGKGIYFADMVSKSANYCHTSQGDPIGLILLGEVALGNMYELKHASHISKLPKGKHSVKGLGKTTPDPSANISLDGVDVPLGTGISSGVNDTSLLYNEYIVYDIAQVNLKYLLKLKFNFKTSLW

| SMILES | PARP1 degradation rate @ 100 nM (PARP1 [2]) | IC50 [3] | inhibition at 10 µM [3] | other results |
| --- | --- | --- | --- | --- |
| CCc1cc2ncc(CN3CCN(c4ccc(C(=O)NC5CN(C6CCN(c7ccc8c(c7)C(=O)N(C7CCC(=O)NC7=O)C8=O)CC6)C5)nc4)CC3)cc2[nH]c1=O (centres unmarked) [Compound 5, N-(1-(1-(2-(2,6-dioxopiperidin-3-yl)-1,3-dioxoisoindolin-5-yl)piperidin-4-yl)azetidin-3-yl)-5-(4-((7-ethyl-6-oxo-5,6-dihydro-1,5-naphthyridin-3-yl)methyl)piperazin-1-yl)picolinamide] | – | – | – | DC50 (PARP1 [1]): 0.12 nM |
| CCc1cc2ncc(CN3CCN(c4ccc(C(=O)NC5CC6(C5)CN(c5ccc7c(c5)C(=O)N(C5CCC(=O)NC5=O)C7=O)C6)nc4)CC3)cc2[nH]c1=O (centres unmarked) [Compound 24, N-(2-(2-(2,6-dioxopiperidin-3-yl)-1,3-dioxoisoindolin-5-yl)-2-azaspiro[3.3]heptan-6-yl)-5-(4-((7-ethyl-6-oxo-5,6-dihydro-1,5-naphthyridin-3-yl)methyl)piperazin-1-yl)picolinamide] | 76.2% | 38 nM | 98.9% | – |
| CCc1cc2ncc(CN3CCN(c4ccc(C(=O)NC5CCN(C6CN(c7cc8c(cc7F)C(=O)N(C7CCC(=O)NC7=O)C8=O)C6)CC5)nc4)CC3)cc2[nH]c1=O (centres unmarked) [Compound 26, N-(1-(1-(2-(2,6-dioxopiperidin-3-yl)-6-fluoro-1,3-dioxoisoindolin-5-yl)azetidin-3-yl)piperidin-4-yl)-5-(4-((7-ethyl-6-oxo-5,6-dihydro-1,5-naphthyridin-3-yl)methyl)piperazin-1-yl)picolinamide] | 83.5% | 53 nM | 81.7% | – |

Second part, led by results:

| PARP1 degradation rate @ 100 nM (PARP1 [2]) | IC50 [3] | SMILES | inhibition at 10 µM [3] | other results |
| --- | --- | --- | --- | --- |
| 92.1% | – | CCc1cc2ncc(CN3CCN(c4ccc(C(=O)NC5CCN(c6ccc7c(c6)CN(C6CCC(=O)NC6=O)C7=O)CC5)nc4)CC3)cc2[nH]c1=O (centres unmarked) [Compound 31, N-(1-(2-(2,6-dioxopiperidin-3-yl)-1-oxoisoindolin-5-yl)piperidin-4-yl)-5-(4-((7-ethyl-6-oxo-5,6-dihydro-1,5-naphthyridin-3-yl)methyl)piperazin-1-yl)picolinamide] | – | – |
| 80.6% | 15.8 nM | CCc1cc2ncc(CN3CCN(c4ccc(C(=O)Nc5cnn(C6CCN(c7ccc8c(c7)C(=O)N(C7CCC(=O)NC7=O)C8=O)CC6)c5)nc4)CC3)cc2[nH]c1=O (centres unmarked) [Compound 57, N-(1-(1-(2-(2,6-dioxopiperidin-3-yl)-1,3-dioxoisoindolin-5-yl)piperidin-4-yl)-1H-pyrazol-4-yl)-5-(4-((7-ethyl-6-oxo-5,6-dihydro-1,5-naphthyridin-3-yl)methyl)piperazin-1-yl)picolinamide] | 84% | – |
| 79.6% | 6 nM | CCc1cc2ncc(CN3CC=C(c4ccc(C(=O)Nc5cnn(C6CCN(c7ccc8c(c7)C(=O)N(C7CCC(=O)NC7=O)C8=O)CC6)c5)nc4)CC3)cc2[nH]c1=O (centres unmarked) [Compound 58, N-(1-(1-(2-(2,6-dioxopiperidin-3-yl)-1,3-dioxoisoindolin-5-yl)piperidin-4-yl)-1H-pyrazol-4-yl)-1′-((7-ethyl-6-oxo-5,6-dihydro-1,5-naphthyridin-3-yl)methyl)-1′,2′,3′,6′-tetrahydro-[3,4′-bipyridine]-6-carboxamide] | 87.2% | pharmacokinetic characteristics [4]: good pharmacokinetic characteristics; F ([4]; i.g. 10 mg/kg): 15.6%; AUC(0-t) [4, 6]: 224 µg·h/mL; clearance [4, 6]: 0.00581 L/h/kg; Vd ([4]; male, ICR, mouse, iv, i.v. 2.5 mg/kg, plasma, read-out: Vdss): 0.189 L/kg; AUC(0-t) ([4]; male, ICR, mouse, po, i.g. 10 mg/kg, plasma): 140 µg·h/mL; pharmacokinetic characteristics [5]: good pharmacokinetic characteristics; F ([5]; i.g. 10 mg/kg): 6.2%; AUC(0-t) [5, 7]: 51.4 µg·h/mL; clearance [5, 7]: 0.0428 L/h/kg; Vd ([5]; male, SD, rat, iv, i.v. 2.5 mg/kg, plasma, read-out: Vdss): 0.366 L/kg; AUC(0-t) ([5]; male, SD, rat, po, i.g. 10 mg/kg, plasma): 12.8 µg·h/mL |
| 76.4% | 97.8 nM | CCc1cc2ncc(CN3CCN(c4ccc(C(=O)NC5CCC(Oc6ccc7c(c6)C(=O)N(C6CCC(=O)NC6=O)C7=O)CC5)nc4)CC3)cc2[nH]c1=O (centres unmarked) [Compound 66, N-((1r,4r)-4-((2-(2,6-dioxopiperidin-3-yl)-1,3-dioxoisoindolin-5-yl)oxy)cyclohexyl)-5-(4-((7-ethyl-6-oxo-5,6-dihydro-1,5-naphthyridin-3-yl)methyl)piperazin-1-yl)picolinamide] | 93.2% | – |

Source: patent publication US20250222116A1, “PARP-1 DEGRADATION AGENT AND USE THEREOF” (XIZANG HAISCO PHARMACEUTICAL CO., LTD., priority 2021, published 2025)
